Data reported in patent US8212031B2, “Pyrrolotriazine kinase inhibitors” (Bristol-Myers Squibb Company, priority 2008, dated 2012).
pIC50: −log10 of the molar value.

molecular target: IGF1-receptor (Homo sapiens, UniProt P08069); assay: IGF1-Receptor Tyrosine Kinase Assay; type: biochemical; conditions: in vitro kinase assay; ATP 25 μM; FL-peptide 1.5 μM; IGF1-Receptor 14 nM; 60 min room temperature; Caliper LabChip 3000; read-out: IGF1R kinase IC50
Method: A IGF1-Receptor Tyrosine Kinase Assay
The assays were performed in U-bottom 384-well plates. The final assay volume was 30 μl prepared from 15 μl additions of enzyme and substrates (fluoresceinated IGF1R substrate peptide and ATP) and test compounds in assay buffer (100 mM HEPES pH 7.4, 10 mM MnCl2, 0.015% Brij35 and 4 mM DTT). The reaction was initiated by the combination of IGF1-receptor with substrates and test compounds. The reaction was incubated at room temperature for 60 min. and terminated by adding 30 μl of 35 mM EDTA to each sample. The reaction mixture was analyzed on the Caliper LabChip 3000 by electrophoretic separation of the fluorescent substrate and phosphorylated product Inhibition data were calculated by comparison to no enzyme control reactions for 100% inhibition and vehicle-only reactions for 0% inhibition. The final concentration of reagents in the assays are ATP, 25 μM; FL-peptide, 1.5 μM; IGF1-Receptor, 14 nM; and DMSO, 1.6%. Dose response curves were generated to determine the concentration required inhibiting 50% of kinase activity (IC50). Compounds were dissolved at 10 mM in dimethylsulfoxide (DMSO) and evaluated at eleven concentrations, each in duplicate. IC50 values were derived by non-linear regression analysis.

Chain of IGF1-receptor (P08069 31-1367): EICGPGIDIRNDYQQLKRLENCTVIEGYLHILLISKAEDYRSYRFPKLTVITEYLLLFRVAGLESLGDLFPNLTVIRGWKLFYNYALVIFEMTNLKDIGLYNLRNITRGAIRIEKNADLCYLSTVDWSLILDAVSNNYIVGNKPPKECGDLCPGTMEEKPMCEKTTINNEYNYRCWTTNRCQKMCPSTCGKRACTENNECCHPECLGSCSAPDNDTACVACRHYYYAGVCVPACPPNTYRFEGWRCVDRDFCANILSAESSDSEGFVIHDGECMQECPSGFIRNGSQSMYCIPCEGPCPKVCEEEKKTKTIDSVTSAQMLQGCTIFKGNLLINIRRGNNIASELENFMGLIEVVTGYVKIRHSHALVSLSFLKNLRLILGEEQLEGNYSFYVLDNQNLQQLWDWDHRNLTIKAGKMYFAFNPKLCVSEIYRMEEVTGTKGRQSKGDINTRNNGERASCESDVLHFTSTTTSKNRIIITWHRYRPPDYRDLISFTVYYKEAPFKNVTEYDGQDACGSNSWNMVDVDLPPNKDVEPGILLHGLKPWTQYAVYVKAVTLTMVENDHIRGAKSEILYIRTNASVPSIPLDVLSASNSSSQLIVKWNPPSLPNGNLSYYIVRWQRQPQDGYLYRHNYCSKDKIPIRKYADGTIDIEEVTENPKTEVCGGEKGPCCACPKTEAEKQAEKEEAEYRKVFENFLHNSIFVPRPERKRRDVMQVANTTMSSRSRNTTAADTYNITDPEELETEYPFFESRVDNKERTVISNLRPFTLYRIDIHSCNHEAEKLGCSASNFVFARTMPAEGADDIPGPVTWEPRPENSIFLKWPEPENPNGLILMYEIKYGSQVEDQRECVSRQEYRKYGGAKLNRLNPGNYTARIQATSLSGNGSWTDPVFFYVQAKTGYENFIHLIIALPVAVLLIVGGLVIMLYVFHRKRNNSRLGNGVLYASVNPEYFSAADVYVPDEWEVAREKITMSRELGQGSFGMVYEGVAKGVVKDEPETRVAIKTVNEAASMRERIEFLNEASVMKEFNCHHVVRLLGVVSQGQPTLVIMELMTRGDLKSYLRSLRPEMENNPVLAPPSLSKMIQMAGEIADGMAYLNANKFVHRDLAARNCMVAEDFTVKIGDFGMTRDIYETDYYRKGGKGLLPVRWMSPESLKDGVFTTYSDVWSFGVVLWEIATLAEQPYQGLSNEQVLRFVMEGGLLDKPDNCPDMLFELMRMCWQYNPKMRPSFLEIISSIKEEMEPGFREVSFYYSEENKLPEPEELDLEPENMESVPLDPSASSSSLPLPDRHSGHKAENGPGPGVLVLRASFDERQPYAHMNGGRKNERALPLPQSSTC

| SMILES | pIC50 |
| --- | --- |
| O=C(Nc1ccc(F)nc1)N1CCCCN1c1nc(Nc2cc(C3CC3)n[nH]2)c2cccn2n1 [Example 2] | 7.70 |
| O=C(Nc1nccs1)N1CCCCN1c1nc(Nc2cc(C3CC3)n[nH]2)c2cccn2n1 [Example 3] | 8.70 |
| O=C(c1nccs1)N1CCCCN1c1nc(Nc2cc(C3CC3)n[nH]2)c2cccn2n1 [Example 4] | 7.21 |
